Test results reported in ChEMBL document CHEMBL3352227, “Synthesis, antimycobacterial and antibacterial evaluation of l-[(1R, 2S)-2-fluorocyclopropyl]fluoroquinolone derivatives containing an oxime functional moiety” (Eur J Med Chem, 2014).
Converted amounts (≈) assume the structure as drawn.

Tests used:
Assay type in all cases: functional
[1] = tested on: Staphylococcus epidermidis; assay: Antibacterial activity against methicillin-sensitive Staphylococcus epidermidis 12-8 after 18 to 24 hrs by standard twofold serial dilution method
[2] = tested on: Streptococcus pneumoniae; assay: Antibacterial activity against Streptococcus pneumoniae ATCC 49619 after 18 to 24 hrs by standard twofold serial dilution method
[3] = tested on: Staphylococcus epidermidis; assay: Antibacterial activity against methicillin-sensitive Staphylococcus epidermidis 12-6 after 18 to 24 hrs by standard twofold serial dilution method
[4] = tested on: Escherichia coli; assay: Antibacterial activity against Escherichia coli 12-1 after 18 to 24 hrs by standard twofold serial dilution method
[5] = tested on: Pseudomonas aeruginosa; assay: Antibacterial activity against Pseudomonas aeruginosa 12-12 after 18 to 24 hrs by standard twofold serial dilution method
[6] = tested on: Staphylococcus epidermidis; assay: Antibacterial activity against methicillin-resistant Staphylococcus epidermidis 12-1 after 18 to 24 hrs by standard twofold serial dilution method
[7] = tested on: Staphylococcus epidermidis; assay: Antibacterial activity against methicillin-resistant Staphylococcus epidermidis 12-6 after 18 to 24 hrs by standard twofold serial dilution method
[8] = tested on: Klebsiella pneumoniae; assay: Antibacterial activity against extended-spectrum beta-lactamase producin Klebsiella pneumoniae 12-4 after 18 to 24 hrs by standard twofold serial dilution method
[9] = tested on: Klebsiella pneumoniae; assay: Antibacterial activity against extended-spectrum beta-lactamase producin Klebsiella pneumoniae 12-14 after 18 to 24 hrs by standard twofold serial dilution method
[10] = tested on: Klebsiella pneumoniae; assay: Antibacterial activity against Klebsiella pneumoniae 12-4 after 18 to 24 hrs by standard twofold serial dilution method
[11] = tested on: Mycobacterium tuberculosis; assay: Antimycobacterial activity against Mycobacterium tuberculosis H37Rv ATCC 27294 by MABA method
[12] = tested on: Klebsiella pneumoniae; assay: Antibacterial activity against extended-spectrum beta-lactamase producin Klebsiella pneumoniae 12-3 after 18 to 24 hrs by standard twofold serial dilution method
[13] = tested on: Staphylococcus aureus; assay: Antibacterial activity against methicillin-sensitive Staphylococcus aureus 12-5 after 18 to 24 hrs by standard twofold serial dilution method
[14] = tested on: Escherichia coli; assay: Antibacterial activity against Escherichia coli ATCC 25922 after 18 to 24 hrs by standard twofold serial dilution method
[15] = tested on: Escherichia coli; assay: Antibacterial activity against extended-spectrum beta-lactamase producing Escherichia coli 12-14 after 18 to 24 hrs by standard twofold serial dilution method
[16] = tested on: Escherichia coli; assay: Antibacterial activity against extended-spectrum beta-lactamase producing Escherichia coli 12-15 after 18 to 24 hrs by standard twofold serial dilution method
[17] = tested on: Staphylococcus aureus; assay: Antibacterial activity against methicillin-sensitive Staphylococcus aureus 12-2 after 18 to 24 hrs by standard twofold serial dilution method
[18] = tested on: Streptococcus pneumoniae; assay: Antibacterial activity against Streptococcus pneumoniae 12-18 after 18 to 24 hrs by standard twofold serial dilution method
[19] = tested on: Klebsiella pneumoniae; assay: Antibacterial activity against extended-spectrum beta-lactamase producin Klebsiella pneumoniae 12-7 after 18 to 24 hrs by standard twofold serial dilution method
[20] = tested on: Klebsiella pneumoniae; assay: Antibacterial activity against Klebsiella pneumoniae 12-2 after 18 to 24 hrs by standard twofold serial dilution method
[21] = tested on: Staphylococcus aureus; assay: Antibacterial activity against methicillin-resistant Staphylococcus aureus 12-5 after 18 to 24 hrs by standard twofold serial dilution method
[22] = tested on: Klebsiella pneumoniae; assay: Antibacterial activity against Klebsiella pneumoniae 12-1 after 18 to 24 hrs by standard twofold serial dilution method
[23] = tested on: Escherichia coli; assay: Antibacterial activity against extended-spectrum beta-lactamase producing Escherichia coli 12-3 after 18 to 24 hrs by standard twofold serial dilution method
[24] = tested on: Staphylococcus epidermidis; assay: Antibacterial activity against methicillin-sensitive Staphylococcus epidermidis 12-1 after 18 to 24 hrs by standard twofold serial dilution method
[25] = tested on: Staphylococcus aureus; assay: Antibacterial activity against methicillin-resistant Staphylococcus aureus 12-2 after 18 to 24 hrs by standard twofold serial dilution method
[26] = tested on: Staphylococcus epidermidis; assay: Antibacterial activity against methicillin-sensitive Staphylococcus epidermidis 12-3 after 18 to 24 hrs by standard twofold serial dilution method
[27] = tested on: Staphylococcus aureus; assay: Antibacterial activity against methicillin-sensitive Staphylococcus aureus 12-4 after 18 to 24 hrs by standard twofold serial dilution method
[28] = tested on: Staphylococcus aureus; assay: Antibacterial activity against Staphylococcus aureus ATCC 25923 after 18 to 24 hrs by standard twofold serial dilution method
[29] = tested on: Pseudomonas aeruginosa; assay: Antibacterial activity against Pseudomonas aeruginosa 12-14 after 18 to 24 hrs by standard twofold serial dilution method
[30] = tested on: Escherichia coli; assay: Antibacterial activity against extended-spectrum beta-lactamase producing Escherichia coli 12-2 after 18 to 24 hrs by standard twofold serial dilution method
[31] = tested on: Staphylococcus aureus; assay: Antibacterial activity against methicillin-resistant Staphylococcus aureus 12-4 after 18 to 24 hrs by standard twofold serial dilution method
[32] = tested on: Staphylococcus aureus; assay: Antibacterial activity against methicillin-sensitive Staphylococcus aureus 12-1 after 18 to 24 hrs by standard twofold serial dilution method

CCO/N=C1/CN(c2nc3c(cc2F)c(=O)c(C(=O)O)cn3[C@@H]2C[C@@H]2F)[C@H]1CN
MIC [1]: 16 mg/L (≈ 39.3 µM) | MIC [2]: 0.5 mg/L (≈ 1.23 µM) | MIC [3]: 0.25 mg/L (≈ 0.614 µM) | MIC [4]: 2 mg/L (≈ 4.91 µM) | MIC [5]: 1 mg/L (≈ 2.45 µM) | MIC [6]: 16 mg/L (≈ 39.3 µM) | MIC [7]: 16 mg/L (≈ 39.3 µM) | MIC [8]: 8 mg/L (≈ 19.6 µM) | MIC [9]: 64 mg/L (≈ 157 µM) | MIC [10]: 0.25 mg/L (≈ 0.614 µM) | MIC [11]: 1 mg/L (≈ 2.45 µM) | MIC [12]: 128 mg/L (≈ 314 µM) | MIC [13]: 0.5 mg/L (≈ 1.23 µM) | MIC [14]: 0.125 mg/L (≈ 0.307 µM) | MIC [15]: 128 mg/L (≈ 314 µM) | MIC [16]: > 128 mg/L | MIC [17]: 0.25 mg/L (≈ 0.614 µM) | MIC [18]: 4 mg/L (≈ 9.82 µM) | MIC [19]: 4 mg/L (≈ 9.82 µM) | MIC [20]: 0.5 mg/L (≈ 1.23 µM) | MIC [21]: 64 mg/L (≈ 157 µM) | MIC [22]: 0.5 mg/L (≈ 1.23 µM) | MIC [23]: 16 mg/L (≈ 39.3 µM) | MIC [24]: 0.5 mg/L (≈ 1.23 µM) | MIC [25]: 64 mg/L (≈ 157 µM) | MIC [26]: 1 mg/L (≈ 2.45 µM) | MIC [27]: 0.25 mg/L (≈ 0.614 µM) | MIC [28]: 0.5 mg/L (≈ 1.23 µM) | MIC [29]: 32 mg/L (≈ 78.6 µM) | MIC [30]: > 128 mg/L | MIC [31]: 64 mg/L (≈ 157 µM) | MIC [32]: 0.5 mg/L (≈ 1.23 µM)

CCO/N=C1/CN(c2nc3c(cc2F)c(=O)c(C(=O)O)cn3[C@@H]2C[C@@H]2F)[C@@H]1CN
MIC [1]: 32 mg/L (≈ 78.6 µM) | MIC [2]: 2 mg/L (≈ 4.91 µM) | MIC [3]: 0.5 mg/L (≈ 1.23 µM) | MIC [4]: 2 mg/L (≈ 4.91 µM) | MIC [5]: 4 mg/L (≈ 9.82 µM) | MIC [6]: 64 mg/L (≈ 157 µM) | MIC [7]: 32 mg/L (≈ 78.6 µM) | MIC [8]: 32 mg/L (≈ 78.6 µM) | MIC [9]: > 128 mg/L | MIC [10]: 1 mg/L (≈ 2.45 µM) | MIC [11]: 4 mg/L (≈ 9.82 µM) | MIC [12]: > 128 mg/L | MIC [13]: 0.5 mg/L (≈ 1.23 µM) | MIC [14]: 0.5 mg/L (≈ 1.23 µM) | MIC [15]: > 128 mg/L | MIC [16]: > 128 mg/L | MIC [17]: 0.5 mg/L (≈ 1.23 µM) | MIC [18]: 8 mg/L (≈ 19.6 µM) | MIC [19]: 8 mg/L (≈ 19.6 µM) | MIC [20]: 1 mg/L (≈ 2.45 µM) | MIC [21]: > 128 mg/L | MIC [22]: 1 mg/L (≈ 2.45 µM) | MIC [23]: 32 mg/L (≈ 78.6 µM) | MIC [24]: 0.5 mg/L (≈ 1.23 µM) | MIC [25]: > 128 mg/L | MIC [26]: 2 mg/L (≈ 4.91 µM) | MIC [27]: 0.25 mg/L (≈ 0.614 µM) | MIC [28]: 0.25 mg/L (≈ 0.614 µM) | MIC [29]: 128 mg/L (≈ 314 µM) | MIC [30]: > 128 mg/L | MIC [31]: > 128 mg/L | MIC [32]: 0.5 mg/L (≈ 1.23 µM)

CCO/N=C1/CN(c2cc3c(cc2F)c(=O)c(C(=O)O)cn3[C@@H]2C[C@@H]2F)CC1CN (stereo partly drawn)
MIC [1]: 0.5 mg/L (≈ 1.19 µM) | MIC [2]: 0.03 mg/L (≈ 0.0714 µM) | MIC [3]: 0.06 mg/L (≈ 0.143 µM) | MIC [4]: 0.5 mg/L (≈ 1.19 µM) | MIC [5]: 0.25 mg/L (≈ 0.595 µM) | MIC [6]: 1 mg/L (≈ 2.38 µM) | MIC [7]: 1 mg/L (≈ 2.38 µM) | MIC [8]: 8 mg/L (≈ 19 µM) | MIC [9]: 32 mg/L (≈ 76.1 µM) | MIC [10]: 0.25 mg/L (≈ 0.595 µM) | MIC [11]: 0.25 mg/L (≈ 0.595 µM) | MIC [12]: 16 mg/L (≈ 38.1 µM) | MIC [13]: 0.06 mg/L (≈ 0.143 µM) | MIC [14]: 0.06 mg/L (≈ 0.143 µM) | MIC [15]: 16 mg/L (≈ 38.1 µM) | MIC [16]: 128 mg/L (≈ 304 µM) | MIC [17]: 0.015 mg/L (≈ 0.0357 µM) | MIC [18]: 0.25 mg/L (≈ 0.595 µM) | MIC [19]: 1 mg/L (≈ 2.38 µM) | MIC [20]: 0.25 mg/L (≈ 0.595 µM) | MIC [21]: 8 mg/L (≈ 19 µM) | MIC [22]: 0.25 mg/L (≈ 0.595 µM) | MIC [23]: 16 mg/L (≈ 38.1 µM) | MIC [24]: 0.06 mg/L (≈ 0.143 µM) | MIC [25]: 8 mg/L (≈ 19 µM) | MIC [26]: 0.25 mg/L (≈ 0.595 µM) | MIC [27]: 0.06 mg/L (≈ 0.143 µM) | MIC [28]: < 0.008 mg/L | MIC [29]: 1 mg/L (≈ 2.38 µM) | MIC [30]: 32 mg/L (≈ 76.1 µM) | MIC [31]: 8 mg/L (≈ 19 µM) | MIC [32]: 0.06 mg/L (≈ 0.143 µM)

CO/N=C1/CN(c2nc3c(cc2F)c(=O)c(C(=O)O)cn3[C@@H]2C[C@@H]2F)[C@@H]1CN
MIC [1]: 32 mg/L (≈ 81.4 µM) | MIC [2]: 1 mg/L (≈ 2.54 µM) | MIC [3]: 0.5 mg/L (≈ 1.27 µM) | MIC [4]: 2 mg/L (≈ 5.08 µM) | MIC [5]: 2 mg/L (≈ 5.08 µM) | MIC [6]: 64 mg/L (≈ 163 µM) | MIC [7]: 64 mg/L (≈ 163 µM) | MIC [8]: 16 mg/L (≈ 40.7 µM) | MIC [9]: 128 mg/L (≈ 325 µM) | MIC [10]: 0.5 mg/L (≈ 1.27 µM) | MIC [11]: 4 mg/L (≈ 10.2 µM) | MIC [12]: > 128 mg/L | MIC [13]: 0.5 mg/L (≈ 1.27 µM) | MIC [14]: 0.25 mg/L (≈ 0.636 µM) | MIC [15]: > 128 mg/L | MIC [16]: > 128 mg/L | MIC [17]: 0.5 mg/L (≈ 1.27 µM) | MIC [18]: 4 mg/L (≈ 10.2 µM) | MIC [19]: 4 mg/L (≈ 10.2 µM) | MIC [20]: 0.5 mg/L (≈ 1.27 µM) | MIC [21]: > 128 mg/L | MIC [22]: 1 mg/L (≈ 2.54 µM) | MIC [23]: 16 mg/L (≈ 40.7 µM) | MIC [24]: 0.5 mg/L (≈ 1.27 µM) | MIC [25]: > 128 mg/L | MIC [26]: 0.5 mg/L (≈ 1.27 µM) | MIC [27]: 0.5 mg/L (≈ 1.27 µM) | MIC [28]: 0.25 mg/L (≈ 0.636 µM) | MIC [29]: 128 mg/L (≈ 325 µM) | MIC [30]: > 128 mg/L | MIC [31]: > 128 mg/L | MIC [32]: 1 mg/L (≈ 2.54 µM)
